The text below walks through data of patent US12582654B2, “Cyano-substituted pyridine and cyano-substituted pyrimidine compound and preparation method therefor and application thereof” (BEIJING SCITECH-MQ PHARMACEUTICALS LIMITED, priority 2019, dated 2026).

The structures appear in SMILES notation.

For one series, the system named is FGFR. Conditions: cited from earlier work.
The next series concerns each subtype of FGFR. The settings on record: cited from earlier work.
In series [1] the test system is FGF19 gene-amplified cells. The settings on record: cited from earlier work.
The conditions of series [2]: mouse and monkey animal models; cited from earlier work.
In the next series the target is FGFR4 kinase (Homo sapiens, UniProt P22455). The series can be described thus: Inhibition of FGFR4 kinase activity (ULight-labeled JAK-1 peptide, EU665/EU615 reading). The settings on record: FGFR4 kinase 3.85 nM, ATP 100 μM, enzymatic reaction 2 hours. Type of series: biochemical. The method in brief:
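TR-FRET kinase assay using 3.85 nM FGFR4, 100 μM ATP and 100 nM ULight-JAK-1 (Tyr1023) peptide; 5 min enzyme–compound preincubation, then 2 h at room temperature. Compounds at 11 3-fold dilutions from 2.5 μM down to 0.042 nM, 1% DMSO. IC50 from EU665/EU615 ratio inhibition curves.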

The target of series [3] is T1, Ba/F3 ETV6-FGFR4-V550L cells (Homo sapiens, UniProt P22455, V550L, cells depend on it).
T1 construct: fused on or other part: N-terminal part of ETV6 (TEL), the oligomerising partner of the fusion; already named as the first entry; P41212 (Transcription factor ETV6)
T1 sequence (P22455 whole entry V550L, the tested form may be a part): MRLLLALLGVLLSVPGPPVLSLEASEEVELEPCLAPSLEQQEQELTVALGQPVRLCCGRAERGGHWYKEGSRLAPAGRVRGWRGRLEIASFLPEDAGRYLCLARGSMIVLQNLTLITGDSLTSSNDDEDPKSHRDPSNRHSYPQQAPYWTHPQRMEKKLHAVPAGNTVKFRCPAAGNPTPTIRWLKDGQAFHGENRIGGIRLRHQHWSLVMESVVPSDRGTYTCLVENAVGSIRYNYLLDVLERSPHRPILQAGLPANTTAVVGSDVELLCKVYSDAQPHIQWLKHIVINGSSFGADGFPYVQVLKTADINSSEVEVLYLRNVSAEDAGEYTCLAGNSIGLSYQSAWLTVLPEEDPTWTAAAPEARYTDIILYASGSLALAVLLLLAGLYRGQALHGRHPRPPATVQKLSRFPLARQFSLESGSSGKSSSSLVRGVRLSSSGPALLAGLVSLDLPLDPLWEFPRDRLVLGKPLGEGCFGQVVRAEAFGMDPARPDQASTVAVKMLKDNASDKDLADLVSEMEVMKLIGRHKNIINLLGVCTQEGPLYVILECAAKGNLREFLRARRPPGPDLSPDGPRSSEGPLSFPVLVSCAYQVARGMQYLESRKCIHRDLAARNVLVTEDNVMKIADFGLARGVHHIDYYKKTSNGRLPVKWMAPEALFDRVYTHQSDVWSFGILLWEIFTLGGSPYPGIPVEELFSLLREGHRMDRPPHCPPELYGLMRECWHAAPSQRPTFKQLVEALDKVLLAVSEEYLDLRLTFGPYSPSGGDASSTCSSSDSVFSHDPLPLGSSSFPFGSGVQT
Put plainly: Inhibition of cell proliferation (CCK-8), Ba/F3 ETV6-FGFR4-V550L cells. Type of series: cell-based. Conditions: 72 hours of incubation, read-out: Ba/F3 ETV6-FGFR4-V550L IC50. In a few lines:
(§1)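 Ba/F3 cells expressing ETV6-FGFR4 or ETV6-FGFR4-V550L exposed for 72 h to 9 concentrations from 4-fold serial dilution (0.25% DMSO final). Viability by CCK-8, OD 450 nm after 1–2 h at 37 °C, relative to untreated and cell-free blanks; IC50 from curve fitting.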

In the next series the target is T2, Ba/F3 ETV6-FGFR4 cells (Homo sapiens, UniProt P22455).
T2 construct: fused on or other part: N-terminal part of ETV6 (TEL), the oligomerising partner that makes the FGFR4 kinase constitutively active; P41212 (Transcription factor ETV6)
T2 sequence (P22455 whole entry, change not shown, the tested form may be a part): as the sequence (P22455 whole entry V550L, the tested form may be a part) above, with L550V counted along it
The series can be described thus: Inhibition of cell proliferation (CCK-8), Ba/F3 ETV6-FGFR4 cells. Type of series: cell-based. Conditions: 72 hours of incubation, read-out: Ba/F3 ETV6-FGFR4 IC50. In a few lines: as §1

The target in another series is FGFR4 V550L kinase (Homo sapiens, UniProt P22455, V550L). Put plainly: Inhibition of FGFR4 V550L mutant kinase activity (ULight-labeled PolyGT, EU665/EU615 reading). Type of series: biochemical. The settings on record: FGFR4 V550L kinase 1 nM, ATP 10 μM, enzymatic reaction 2 hours. In a few lines:
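TR-FRET kinase assay: 1 nM FGFR4 V550L, 10 μM ATP, 100 nM ULight-PolyGT substrate, 2 h at room temperature after 5 min compound–enzyme preincubation, 1% DMSO. Compound tested as 11-point 3-fold dilution from 2.5 μM to 0.042 nM final. Signal as EU665/EU615 ratio; IC50 fitted from % inhibition.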

Sequence of FGFR4 kinase (P22455 22-802): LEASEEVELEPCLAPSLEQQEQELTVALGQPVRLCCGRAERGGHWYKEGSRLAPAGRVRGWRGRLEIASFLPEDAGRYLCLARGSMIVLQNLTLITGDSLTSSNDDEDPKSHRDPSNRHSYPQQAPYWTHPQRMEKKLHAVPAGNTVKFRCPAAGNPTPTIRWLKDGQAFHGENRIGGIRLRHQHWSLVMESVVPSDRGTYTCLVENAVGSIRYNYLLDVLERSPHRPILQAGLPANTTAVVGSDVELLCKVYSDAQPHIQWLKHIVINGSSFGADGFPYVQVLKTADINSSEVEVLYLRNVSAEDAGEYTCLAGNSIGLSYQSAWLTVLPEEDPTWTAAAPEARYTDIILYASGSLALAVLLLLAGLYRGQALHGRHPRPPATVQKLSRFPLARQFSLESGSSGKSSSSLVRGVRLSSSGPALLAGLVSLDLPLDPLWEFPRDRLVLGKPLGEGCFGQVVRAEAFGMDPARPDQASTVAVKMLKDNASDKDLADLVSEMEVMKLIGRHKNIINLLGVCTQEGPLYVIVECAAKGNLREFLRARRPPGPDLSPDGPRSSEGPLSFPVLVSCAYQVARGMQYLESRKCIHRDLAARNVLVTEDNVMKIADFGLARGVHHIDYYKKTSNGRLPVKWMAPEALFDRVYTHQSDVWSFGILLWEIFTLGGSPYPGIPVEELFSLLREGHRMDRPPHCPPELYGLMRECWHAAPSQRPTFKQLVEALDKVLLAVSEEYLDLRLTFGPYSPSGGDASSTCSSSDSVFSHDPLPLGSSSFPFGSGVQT
Sequence of FGFR4 V550L kinase (P22455 22-802 V550L): as the sequence (P22455 22-802) above, with V529L counted along it

Consider `CCN(CC)CCCCNc1ncc2cc(-c3cc(OC)cc(OC)c3)c(NC(=O)NC(C)(C)C)nc2n1` [PD173074], for which, in the series with FGFR, the FGFR inhibitory activity entry was “nanomolar inhibitory activity”.
`C=CC(=O)N1CCN(CCCn2c(=O)c(-c3c(Cl)c(OC)cc(OC)c3Cl)cc3cnc(NC)nc32)CC1` [PRN-1371]: the “enzymatic inhibitory activity against each subtype of FGFR” value with each subtype of FGFR is listed as “nanomolar levels”.
Regarding `C=CC(=O)Nc1cc(N2CCN(CC)CC2)ccc1Nc1cc(N(C)C(=O)Nc2c(Cl)c(OC)cc(OC)c2Cl)ncn1` [Example H3B6527], the “antitumor activity against FGF19 gene-amplified cells” value in series [1] was “strong antitumor activity”. In addition, the “bile acid-related adverse effects” value in series [2] is “without bile acid-related adverse effects”.
Usually IC50 stands for the concentration at which inhibition is half-maximal. As for `C=CC(=O)Nc1cc(N2CCN(CC)CC2)ccc1Nc1ncc(C#N)c(Nc2ccc(OCCOC)cc2OC(C)C)n1` [Example 33, N-(2-((5-cyano-4-((2-isopropoxy-4-(2-methoxyethoxy)phenyl)amino)pyrimidin-2-yl)amino)-5-(4-ethylpiperazin-1-yl)phenyl) acrylamide], the IC50 against FGFR4 kinase is no more than 10 nM; at FGFR4 V550L kinase, 10 to 50 nM. The GI50 (in series [3]; on Ba/F3 ETV6-FGFR4 cells) was no more than 10 nM throughout.
As for `C=CC(=O)Nc1cc(N2CCC(N3CCOCC3)CC2)ccc1Nc1ncc(C#N)c(Nc2ccccc2OC(C)C)n1` [Example 5, N-(2-((5-cyano-4-((2-isopropoxyphenyl)amino)pyrimidin-2-yl)amino)-5-(4-morpholinopiperidin-1-yl)phenyl) acrylamide], the 50% inhibitory concentration (IC50) at FGFR4 kinase lay within 50 to 100 nM; against FGFR4 V550L kinase, 10 to 50 nM. Also, the GI50 (in series [3]; at Ba/F3 ETV6-FGFR4 cells) was no more than 10 nM throughout.
On to `C=CC(=O)Nc1cc(N2CCC(N3CCN(C)C(=O)C3)CC2)c(F)cc1Nc1ncc(C#N)c(Nc2ccccc2OC(C)C)n1` [Example 44, N-(2-((5-cyano-4-((2-isopropoxyphenyl)amino)pyrimidin-2-yl)amino)-4-fluoro-5-(4-(4-methyl-3-oxopiperazin-1-yl)piperidin-1-yl)phenyl) acrylamide], for which the IC50 against FGFR4 kinase and at FGFR4 V550L kinase was 10 to 50 nM in each case. In addition, the GI50 (in series [3]; on Ba/F3 ETV6-FGFR4 cells) was no more than 10 nM throughout.
With `C=CC(=O)Nc1cc(N2CCC(N3CCCCC3)CC2)c(F)cc1Nc1ncc(C#N)c(Nc2ccccc2OC(C)C)n1` [Example 18, N-(5-([1,4‘- bipiperidin]-1′-yl)-2-((5-cyano-4-((2-isopropoxyphenyl)amino)pyrimidin-2-yl)amino)-4-fluorophenyl) acrylamide], the half-inhibitory concentration (IC50) on FGFR4 kinase and against FGFR4 V550L kinase was 10 to 50 nM throughout. Also, the GI50 (in series [3]; on Ba/F3 ETV6-FGFR4 cells) was no more than 10 nM in each case.
Regarding `C=CC(=O)Nc1cc(N2CCC(N3CCN(C)CC3)CC2)ccc1Nc1ncc(C#N)c(Nc2ccccc2SC(C)C)n1` [Example 81], the concentration for half-maximal inhibition (IC50) against FGFR4 kinase and against FGFR4 V550L kinase was no more than 10 nM each time. Further, the GI50 (in series [3]; on Ba/F3 ETV6-FGFR4 cells) was no more than 10 nM each time.
For `C=CC(=O)Nc1cc(N2CCC(N(C)CCCO)CC2)ccc1Nc1ncc(C#N)c(Nc2ccccc2OC(C)C)n1` [Example 68, N-(2-((5-cyano-4-((2-isopropoxyphenyl)amino)pyrimidin-2-yl)amino)-5-(4-((3-hydroxypropyl) (methyl)amino)piperidin-1-yl)phenyl) acrylamide], the IC50 against FGFR4 kinase and at FGFR4 V550L kinase was no more than 10 nM throughout. For the same compound, the GI50 (in series [3]; on Ba/F3 ETV6-FGFR4 cells) was no more than 10 nM each time.
`C=CC(=O)Nc1cc(N2CCC(N3CCN(C)CC3)CC2)ccc1Nc1ncc(C#N)c(Nc2ccccc2OC(C)C)n1` [Example 6, N-(2-((5-cyano-4-((2-isopropoxyphenyl)amino)pyrimidin-2-yl)amino)-5-(4-(4-methylpiperazin-1-yl)piperidin-1-yl)phenyl) acrylamide]: the IC50 against FGFR4 kinase and against FGFR4 V550L kinase was no more than 10 nM each time. Moreover, the GI50 (in series [3]; at Ba/F3 ETV6-FGFR4 cells) was no more than 10 nM each time.
